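Briefly, cells in 96-well plates were exposed to five compound concentrations for 48 h, and endpoints were estimated by linear interpolation. GI50 = concentration required for 50% inhibition of growth. TGI: concentration producing complete growth inhibition.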 A value given as a limit tells only on which side of the number the result lay.

In this experiment the test system is MDA-MB-468 breast. Briefly: growth of human tumour cells (NCI), 48 h.

With `C#CCNC(=S)N/N=C(\C)c1ccccn1`, the GI50 was 0.0335 µM and the TGI came out at 0.273 µM.

As for `NC(=O)[C@@H](CC1CC1)[C@@H](CCC(F)(F)F)C(=O)N[C@H]1N=C(c2ccccc2)c2cccc(F)c2NC1=O`, the GI50 was greater than 100 µM and the TGI is greater than 100 µM.

In the case of `CCC(C)Oc1nc2c(c(=O)n(C)c(=O)n2C)n1C` (stereo not given), the GI50 is greater than 100 µM and the TGI was greater than 100 µM.

`COc1cccc(CN(C)c2ccc(CO)c(Cl)c2)c1`: the GI50 is 0.0209 µM and the TGI worked out at 0.06 µM.

As for `CN(Cc1ccc(C(F)(F)F)cc1)CC(O)C(=O)Nc1ccc(Cl)cc1` (stereo not given), the GI50 is 1.37 µM and the TGI is 2.91 µM.

On to `CCn1c(-c2cc3c([nH]c4ccccc43)c(-c3cccc(O)c3)n2)n[nH]c1=S`, for which the GI50 is 3.19 µM and the TGI turned out to be 15.2 µM.

Regarding `c1cc(-c2nnc(SSc3ncnc4nc[nH]c34)o2)ccn1`, the GI50 was 0.251 µM and the TGI worked out at 0.967 µM.

As for `Cc1ncc(C(=O)Nc2ccc(CN3CCN(C)CC3)c(C(F)(F)F)c2)cc1C#Cc1ccc(N)nc1`, the GI50 was 0.368 µM and the TGI stood at 2.12 µM.

As to `O=C(Nc1ccc(-n2ccc3c(NC(=O)c4ccccc4)ncnc32)cc1)c1cccc(C(F)(F)F)c1`, the GI50 is 4.05 µM and the TGI was determined as 20.4 µM.

`CN1CCN(Cc2ccc(NC(=O)c3cncc(C#Cc4cnc(N)cc4C#N)c3)cc2C(F)(F)F)CC1`: the GI50 is 2.01 µM and the TGI was 5.3 µM.

`C1=C/COCc2cc(ccc2OCCN2CCCC2)Nc2nccc(n2)-c2ccc(o2)COC/1`: the GI50 was 1.49 µM and the TGI stood at 3.18 µM.

As to `CSc1ccc(/C(=N/N=C(N)N)c2ccccc2)cc1`, the GI50 was 0.451 µM and the TGI was 8.6 µM.

For `NS(=O)(=O)c1ccc(N=Nc2c(O)[nH]c3ccc(C(=O)NCc4ccncc4)cc23)cc1`, the GI50 was greater than 25 µM and the TGI was greater than 25 µM.

Take `NCCCCC1NC(=O)C(CC(=O)O)NC(=O)CNC(=O)C(CCCN=C(N)N)NC(=O)C(N)CSSCC(C(=O)O)NC(=O)C(CC(=O)O)NC(=O)C2CCCN2C(=O)CNC1=O` (stereo not given): the GI50 was greater than 100 µM and the TGI was greater than 100 µM.

Consider `Cc1ccc2nc(-c3ccc(OCC(=O)N=Nc4c(O)[nH]c5ccccc45)cc3)[nH]c2c1`, for which the GI50 was 2.09 µM and the TGI was 4.9 µM.

Turning to `N#C/C(=C\c1ccc([N+](=O)[O-])s1)c1nc2cc(Cl)ccc2s1`, the GI50 is 2.36 µM and the TGI turned out to be 5.76 µM.

In the case of `COc1ccc(/C=C/C(=O)c2ccc(-n3cc(CN4CCN(c5cc6c(cc5F)c(=O)c(C(=O)O)cn6C5CC5)CC4)nn3)cc2)cc1OC`, the GI50 was 1.96 µM and the TGI came out at 5.24 µM.

As to `CN1CCN(CCOc2ccc(-c3cnc4c(-c5cccc(F)c5)cnn4c3)cc2)CC1`, the GI50 was 1.67 µM and the TGI was 3.25 µM.

In the case of `COC(=O)C(CCC(=O)CCl)N1C(=O)c2ccccc2C1=O` (stereo not given), the GI50 was 2.11 µM and the TGI is 5.61 µM.

With `CC(Nc1c(C#N)cnc2ccc(-c3cncc(-c4n[nH]c(=O)o4)c3)cc12)c1ccccc1` (stereo not given), the GI50 was 1.23 µM and the TGI came to 3.66 µM.

Take `CCN1CCN(c2cc(C)nc(N(CCCNc3ccnc4cc(Cl)ccc34)Cc3ccc4c(c3)OCO4)n2)CC1`: the GI50 was 1.82 µM and the TGI stood at 4.25 µM.

As to `C=C1C(=O)O[C@H]2[C@H]1CC/C(COC(=O)NCc1ccc(OC)cc1)=C\CC[C@@]1(C)O[C@@H]21`, the GI50 was 0.352 µM and the TGI amounted to 1.75 µM.

`Cc1cc(C)c2c(n1)sc1c(N)ncnc12`: the GI50 is 19.9 µM and the TGI was greater than 25 µM.

Consider `O=C(/C=C/c1ccc(C(F)(F)F)cc1)Nc1ccc(C=C2c3ccccc3C(=O)c3ccccc32)cc1`, for which the GI50 is 1.99 µM and the TGI was found to be 20.8 µM.

With `CN(C)CCNC(=O)c1ccc(-c2nc3ccc4[nH]ncc4c3c3c2C2CCC3C2)cc1` (stereo not given), the GI50 is 1.12 µM and the TGI was found to be 3.14 µM.

Take `O=S1(=O)N(Cc2ccccc2)[C@@H](Cc2ccccc2)[C@H](O)[C@H](O)[C@H](Cc2ccccc2)N1Cc1ccccc1`: the GI50 was 2.98 µM and the TGI came to 7.17 µM.

Regarding `CSc1ncc(Br)c(Sc2nc(N)nc3nc[nH]c23)n1`, the GI50 is 2.36 µM and the TGI was found to be 19.7 µM.

With `CC(C)c1nc(N(C)S(C)(=O)=O)nc(-c2ccc(F)cc2)c1/C=C/[C@@H](O)C[C@@H](O)CC(=O)O`, the GI50 was 18.5 µM and the TGI was found to be 69.3 µM.

With `CCCCCCCCOC(=O)c1c(C)[nH]c(/C=C2\N=C(c3ccc[nH]3)C=C2OC)c1C`, the GI50 is 0.0868 µM and the TGI worked out at 2.67 µM.

With `O=C1C2=C(C(=O)c3cnccc31)C1C=CC2CC1` (stereo not given), the GI50 was 0.185 µM and the TGI came out at 0.416 µM.

Take `CC1=C2C(=CC(C)(C)[C@@H]2O)C(=O)[C@](C)(O)C12CC2`: the GI50 is 0.0129 µM and the TGI was 0.0362 µM.

`C=C/C(C)=C/C[C@]1(C)[C@H](C)[C@@H](OC(=O)CCC)[C@H](O)[C@@]23C(=C[C@H](OC)C[C@@H]12)[C@@H](OC(=O)CCC)O[C@H]3OC(C)=O`: the GI50 is 0.337 µM and the TGI is 1.24 µM.

As for `Cc1cc(Nc2nc(C(=O)Nc3ccccc3)nc3ccccc23)n[nH]1`, the GI50 was 9.15 µM and the TGI was greater than 25 µM.

For the compound `CC1CN(S(=O)(=O)c2oc(-c3ccc(Cl)cc3)nc2C#N)CC(C)O1` (stereo not given), the GI50 is 1.87 µM and the TGI amounted to 4.16 µM.

For the compound `COC(=O)C12CC(NC(=O)c3csc([C@@H](C[C@H](C(C)C)N(C)C(=O)[C@@H](NC(=O)[C@H]4CCCCN4C)C4CC4)OC(C)=O)n3)(C1)C2`, the GI50 was 0.0169 µM and the TGI was greater than 16.7 µM.

With `CCCCCN(CCCCC)CC(O)c1cc(Cl)ccc1OC` (stereo not given), the GI50 was 9.71 µM and the TGI came to 23.1 µM.

Regarding `CCN1CCN(Cc2ccc(NC(=O)Nc3nc4ccc(Oc5ccnc(C(=O)NC)c5)cc4s3)cc2C(F)(F)F)CC1`, the GI50 was 1.66 µM and the TGI is 3.2 µM.

In the case of `CCN(Cc1cc(F)ccc1F)c1ccc(CO)c(Cl)c1`, the GI50 was 0.0164 µM and the TGI is 0.0411 µM.

On to `COc1cc2ncnc(-n3ncc4cc(NC(=O)Nc5ccc(Cl)c(Cl)c5)ccc43)c2cc1OC`, for which the GI50 is 2.17 µM and the TGI came to 4.52 µM.

As to `O=C(Nc1ccc(F)cc1F)c1cc(Cl)ccc1O`, the GI50 is 1.64 µM and the TGI is 5.07 µM.

The record behind these values is PubChem BioAssay (NCI).
